Experimental data reported in ChEMBL document CHEMBL1201862, “PubChem BioAssay data set” (2004).
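Compound exposure: 48 hours, 5 concentrations, 96-well plates. Abbreviation: GI50, concentration required for 50% inhibition of growth.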 Activity calls are given as the source filed them. No stated cut-off is given here; in the data, active = GI50 up to about 1.1 µM and inactive = higher.

How the values were obtained:
Test in all cases: NCI tumour cell line growth inhibition, 48 h
786-0 = test system: 786-0
A498 = test system: A498
A549 = test system: A549
ACHN = test system: ACHN
BT-549 = test system: BT-549
CAKI-1 = test system: CAKI-1
CCRF-CEM = test system: CCRF-CEM
COLO 205 = test system: COLO 205
DU-145 = test system: DU-145
EKVX = test system: EKVX
HCC 2998 = test system: HCC 2998
HCT-116 = test system: HCT-116
HCT-15 = test system: HCT-15
HL-60 = test system: HL-60
HOP-62 = test system: HOP-62
HOP-92 = test system: HOP-92
HT-29 = test system: HT-29
Hs-578T = test system: Hs-578T
IGROV-1 = test system: IGROV-1
K562 = test system: K562
KM12 = test system: KM12
LOX IMVI = test system: LOX IMVI
M14 = test system: M14
MCF7 = test system: MCF7
MDA-MB-231 = test system: MDA-MB-231
MDA-MB-435 = test system: MDA-MB-435
MDA-N = test system: MDA-N
MOLT-4 = test system: MOLT-4
Malme-3M = test system: Malme-3M
NCI-H226 = test system: NCI-H226
NCI-H23 = test system: NCI-H23
NCI-H460 = test system: NCI-H460
NCI-H522 = test system: NCI-H522
NCI/ADR-RES = test system: NCI/ADR-RES
OVCAR-3 = test system: OVCAR-3
OVCAR-4 = test system: OVCAR-4
OVCAR-5 = test system: OVCAR-5
OVCAR-8 = test system: OVCAR-8
PC-3 = test system: PC-3
RPMI-8226 = test system: RPMI-8226
RXF 393 = test system: RXF 393
SF-268 = test system: SF-268
SF-295 = test system: SF-295
SF-539 = test system: SF-539
SK-MEL-28 = test system: SK-MEL-28
SK-MEL-2 = test system: SK-MEL-2
SK-MEL-5 = test system: SK-MEL-5
SK-OV-3 = test system: SK-OV-3
SN12C = test system: SN12C
SNB-19 = test system: SNB-19
SNB-75 = test system: SNB-75
SR = test system: SR
SW-620 = test system: SW-620
T47D = test system: T47D
TK-10 = test system: TK-10
U-251 = test system: U-251
UACC-257 = test system: UACC-257
UACC-62 = test system: UACC-62
UO-31 = test system: UO-31

Question: `C=CC(OC(C)=O)c1ccc(OC(=O)C(C)C)c(OC)c1` (stereo not drawn) was tested. Which GI50 (786-0) did it give?
Answer: 1990 nM (inactive)

Question: What about the GI50 (A498) of the same molecule?
Answer: 17200 nM (inactive)

Question: And the GI50 (A549)?
Answer: 18800 nM (inactive)

Question: What about the GI50 (ACHN) of the same molecule?
Answer: 3340 nM (inactive)

Question: What about the GI50 (BT-549) of the same molecule?
Answer: 6790 nM (inactive)

Question: What about the GI50 (CAKI-1) of the same molecule?
Answer: 1770 nM (inactive)

Question: And the GI50 (CCRF-CEM)?
Answer: 2010 nM (inactive)

Question: And the GI50 (COLO 205)?
Answer: 2490 nM (inactive)

Question: And the GI50 (DU-145)?
Answer: 11500 nM (inactive)

Question: What about the GI50 (EKVX) of the same molecule?
Answer: 7500 nM (inactive)

Question: What about the GI50 (HCC 2998) of the same molecule?
Answer: 11200 nM (inactive)

Question: What about the GI50 (HCT-116) of the same molecule?
Answer: 5850 nM (inactive)

Question: What about the GI50 (HCT-15) of the same molecule?
Answer: 4980 nM

Question: And the GI50 (HL-60)?
Answer: 2790 nM (inactive)

Question: What about the GI50 (HOP-62) of the same molecule?
Answer: 10200 nM (inactive)

Question: What about the GI50 (HOP-92) of the same molecule?
Answer: 5930 nM (inactive)

Question: And the GI50 (HT-29)?
Answer: 2310 nM (inactive)

Question: What about the GI50 (Hs-578T) of the same molecule?
Answer: 6640 nM (inactive)

Question: And the GI50 (IGROV-1)?
Answer: 12900 nM (inactive)

Question: What about the GI50 (K562) of the same molecule?
Answer: 3150 nM (inactive)

Question: What about the GI50 (KM12) of the same molecule?
Answer: 2670 nM (inactive)

Question: What about the GI50 (LOX IMVI) of the same molecule?
Answer: 1950 nM (inactive)

Question: And the GI50 (M14)?
Answer: 5600 nM (inactive)

Question: What about the GI50 (MCF7) of the same molecule?
Answer: 2360 nM (inactive)

Question: And the GI50 (MDA-MB-231)?
Answer: 4720 nM (inactive)

Question: What about the GI50 (MDA-MB-435) of the same molecule?
Answer: 5730 nM (inactive)

Question: And the GI50 (MDA-N)?
Answer: 5220 nM (inactive)

Question: And the GI50 (MOLT-4)?
Answer: 9020 nM (inactive)

Question: And the GI50 (Malme-3M)?
Answer: 1940 nM (inactive)

Question: And the GI50 (NCI-H226)?
Answer: 19600 nM (inactive)

Question: What about the GI50 (NCI-H23) of the same molecule?
Answer: 9400 nM (inactive)

Question: And the GI50 (NCI-H460)?
Answer: 11400 nM (inactive)

Question: And the GI50 (NCI-H522)?
Answer: 1540 nM (inactive)

Question: What about the GI50 (NCI/ADR-RES) of the same molecule?
Answer: 10200 nM (inactive)

Question: What about the GI50 (OVCAR-3) of the same molecule?
Answer: 5810 nM (inactive)

Question: And the GI50 (OVCAR-4)?
Answer: 4900 nM (inactive)

Question: What about the GI50 (OVCAR-5) of the same molecule?
Answer: 2510 nM (inactive)

Question: And the GI50 (OVCAR-8)?
Answer: 4810 nM (inactive)

Question: What about the GI50 (PC-3) of the same molecule?
Answer: 5190 nM (inactive)

Question: And the GI50 (RPMI-8226)?
Answer: 1820 nM (inactive)

Question: What about the GI50 (RXF 393) of the same molecule?
Answer: 3180 nM (inactive)

Question: And the GI50 (SF-268)?
Answer: 7800 nM (inactive)

Question: What about the GI50 (SF-295) of the same molecule?
Answer: 10500 nM (inactive)

Question: What about the GI50 (SF-539) of the same molecule?
Answer: 9400 nM (inactive)

Question: And the GI50 (SK-MEL-28)?
Answer: 11100 nM (inactive)

Question: And the GI50 (SK-MEL-2)?
Answer: 4480 nM (inactive)

Question: What about the GI50 (SK-MEL-5) of the same molecule?
Answer: 15300 nM (inactive)

Question: What about the GI50 (SK-OV-3) of the same molecule?
Answer: 16600 nM (inactive)

Question: And the GI50 (SN12C)?
Answer: 3630 nM (inactive)

Question: What about the GI50 (SNB-19) of the same molecule?
Answer: 11800 nM (inactive)

Question: And the GI50 (SNB-75)?
Answer: 4860 nM (inactive)

Question: What about the GI50 (SR) of the same molecule?
Answer: 2490 nM (inactive)

Question: And the GI50 (SW-620)?
Answer: 2600 nM (inactive)

Question: What about the GI50 (T47D) of the same molecule?
Answer: 2860 nM (inactive)

Question: What about the GI50 (TK-10) of the same molecule?
Answer: 5040 nM (inactive)

Question: And the GI50 (U-251)?
Answer: 2390 nM (inactive)

Question: And the GI50 (UACC-257)?
Answer: 9860 nM (inactive)

Question: What about the GI50 (UACC-62) of the same molecule?
Answer: 13300 nM (inactive)

Question: What about the GI50 (UO-31) of the same molecule?
Answer: 3440 nM (inactive)

Question: What does the source list for `CC(C)C1OC(=O)C(Cc2ccccc2)N(C)C(=O)C(C(C)C)OC(=O)C(Cc2ccccc2)N(C)C(=O)C(C(C)C)OC(=O)C(Cc2ccccc2)N(C)C1=O` (stereo not drawn)?
Answer: GI50 (786-0): 1170 nM (inactive); GI50 (A498): 2360 nM (inactive); GI50 (A549): 618 nM (active); GI50 (ACHN): 603 nM (active); GI50 (BT-549): 1390 nM (inactive); GI50 (CAKI-1): 979 nM (active); GI50 (CCRF-CEM): 373 nM (active); GI50 (COLO 205): 682 nM (active); GI50 (DU-145): 1620 nM (inactive); GI50 (EKVX): 984 nM (active); GI50 (HCC 2998): 762 nM (active); GI50 (HCT-116): 989 nM (active); GI50 (HCT-15): 891 nM; GI50 (HL-60): 498 nM (active); GI50 (HOP-62): 838 nM (active); GI50 (HOP-92): 528 nM (active); GI50 (HT-29): 783 nM (active); GI50 (Hs-578T): 1180 nM (inactive); GI50 (IGROV-1): 1030 nM (active); GI50 (K562): 838 nM (active); GI50 (KM12): 501 nM (active); GI50 (LOX IMVI): 802 nM (active); GI50 (M14): 713 nM (active); GI50 (MCF7): 647 nM (active); GI50 (MDA-MB-231): 1370 nM (inactive); GI50 (MDA-MB-435): 641 nM (active); GI50 (MDA-N): 815 nM (active); GI50 (MOLT-4): 508 nM (active); GI50 (Malme-3M): 359 nM (active); GI50 (NCI-H226): 1360 nM (inactive); GI50 (NCI-H23): 1030 nM (active); GI50 (NCI-H460): 865 nM (active); GI50 (NCI-H522): 689 nM (active); GI50 (NCI/ADR-RES): 771 nM (active); GI50 (OVCAR-3): 598 nM (active); GI50 (OVCAR-4): 463 nM (active); GI50 (OVCAR-5): 1030 nM (active); GI50 (OVCAR-8): 723 nM (active); GI50 (PC-3): 687 nM (active); GI50 (RPMI-8226): 489 nM (active); GI50 (RXF 393): 887 nM (active); GI50 (SF-268): 1400 nM (inactive); GI50 (SF-295): 662 nM (active); GI50 (SF-539): 1030 nM (active); GI50 (SK-MEL-28): 780 nM (active); GI50 (SK-MEL-2): 628 nM (active); GI50 (SK-MEL-5): 530 nM (active); GI50 (SK-OV-3): 836 nM (active); GI50 (SN12C): 804 nM (active); GI50 (SNB-19): 805 nM (active); GI50 (SNB-75): 1630 nM (inactive); GI50 (SR): 1890 nM (inactive); GI50 (SW-620): 685 nM (active); GI50 (T47D): 1050 nM (active); GI50 (TK-10): 757 nM (active); GI50 (U-251): 661 nM (active); GI50 (UACC-257): 748 nM (active); GI50 (UACC-62): 643 nM (active); GI50 (UO-31): 307 nM (active)
